The values that follow come from US6903130B1, “Pyrrolidineacetamide derivative alone or in combination for treatment of cns disorders” (UCB S.A., priority 1999, dated 2005).

Read-outs that look alike come from different tables or passages of the source.

The experiment relates to sound-sensitive mice. Nature of the experiment: Audiogenic seizure testing, protection against clonic convulsions. Type of experiment: in vivo, mouse. The following applies: for ED50: Mus musculus, ip, read-out: ED50, protection against audiogenic-induced clonic convulsions. The text has this:
The purpose of this study was to evaluate the effect of levetiracetam on the anticonvulsivant potency of valproate in sound sensitive mice, a genetic animal model with reflex seizures. In this model of generalized epilepsy, seizures can be evoked without electrical or chemical stimulation and seizure types, at least in part, are similar in their clinical phenomenology to seizures occurring in man (Löscher W. & Schmidt D., Epilepsy Res. (1988), 2, 145-181; Buchhalter J. R., Epilepsia (1993), 34, S31-S41).
The experimental design consisted of one group receiving vehicles, another group receiving levetiracetam alone at a dose of 5.5 mg/kg and the other groups receiving different doses of valproate alone or in combination with levetiracetam. Levetiracetam alone was also tested. […] Levetiracetam and sodium valproate were both dissolved in 0.9% saline solution, to give solutions of pH 6.4 and 6.2, respectively.
The proportion of mice protected against clonic convulsions was calculated and used as the end point for the anticonvulsant activity.
Methods used for calculation and statistical analysis are described hereafter: • A response to drug treatment was expressed as the proportion of animals protected against induced convulsions, or showing an impairment of the rotarod performance, at each individual dose. […] From these formulations, the dose of valproate, considered as expected value, that should be associated to a constant dose of levetiracetam in order to afford 50% of protection, may be calculated as: [formula] for the additive model [formula] for the independent model.
These calculated doses (Vm50 expected) may then be compared to the observed doses of valproate which, in combination with a constant dose of levetiracetam, induce an effect corresponding to 50% protection (Vm50 observed). […]

Turning to `CC[C@@H](C(N)=O)N1CCCC1=O` [Levetiracetam, (S)-(−)α-ethyl-2-oxo-1-pyrrolidineacetamide], the ED50 was 10 mg/kg. In addition, for the setting “levetiracetam 5.5 mg/kg i.p. alone, inferred from dose-response relation”, the “animals protected against audiogenic-induced clonic convulsions” value is listed as 20%. Consider `CCCC(CCC)C(=O)[O-].[Na+]` [Valproate, sodium valproate], for which, for the setting “compound alone, i.p., LOGIT-LOG DOSE regression”, the ED50 is 122 mg/kg.
